According to patent US20220235088A1 (Memorial Sloan-Kettering Cancer Center, priority 2019, published 2022):
Values after ≈ are worked out from the molar mass of the structure shown. Values joined by “and” are separate entries in the source; they are usually repeats but may differ in a detail not shown here. Equal entries are not always repeated. “Also recorded” adds a separate entry of the source.

Columns and labels:
MRSA (ATCC BAA-1762) = settings: MRSA (ATCC BAA1762); Matarlo et al. Biochemistry 2015; cited from earlier work
E. coli MenE (K437A) = target: T1, E. coli MenE (K437A) (Escherichia coli, UniProt P37353, K437A); assay: Isothermal titration calorimetry, MenE K437A lynchpin mutant; type: binding; settings: ITC
T1 construct: His6 (N); made in house; host or cells: E. coli BL21(DE3) pLysS
T1 sequence (P37353 1-451 K437A): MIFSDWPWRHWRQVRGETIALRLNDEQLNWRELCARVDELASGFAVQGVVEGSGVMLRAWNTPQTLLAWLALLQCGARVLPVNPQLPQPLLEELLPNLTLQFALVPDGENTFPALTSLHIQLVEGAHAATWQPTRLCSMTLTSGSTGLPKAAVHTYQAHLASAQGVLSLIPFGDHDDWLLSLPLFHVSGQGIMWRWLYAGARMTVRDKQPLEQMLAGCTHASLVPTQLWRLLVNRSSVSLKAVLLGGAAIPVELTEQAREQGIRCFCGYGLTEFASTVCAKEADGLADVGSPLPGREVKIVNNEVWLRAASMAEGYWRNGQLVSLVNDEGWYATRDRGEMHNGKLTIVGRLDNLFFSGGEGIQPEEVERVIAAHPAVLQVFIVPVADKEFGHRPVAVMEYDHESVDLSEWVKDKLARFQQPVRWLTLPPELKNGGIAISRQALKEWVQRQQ
Description: Based on the nucleotide sequence of MenE (from E. coli strain K-12), the forward primer with the sequence of 5′-[…]-3′ and T7 reverse primer were designed, synthesized, and used to introduce the K437A mutation in E. coli MenE. High-fidelity Phusion polymerase (New England BioLabs) was used for standard polymerase chain reaction amplification and mutagenesis.
(§1) ITC was performed using VP-ITC instrument at 22° C. Inhibitor (1 mM) and E. coli MenE(wt) (30 μM) were prepared in 20 mM NaHPO4, pH 7.4 buffer containing 150 mM NaCl and 1 mM MgCl2. From the injection syringe, the inhibitor was titrated into the sample cell containing 1.8 mL solution of MenE. The data were fit to a single-binding site model with the Origin software package.
To probe for these interactions experimentally. the binding affinity of m-phenyl ether analogue 5 to wild-type E. coli MenE and the K437A mutant were compared.

E. coli MenE(wt) = target: T2, E. coli MenE(wt) (Escherichia coli, UniProt P37353); assay: Isothermal titration calorimetry, wild-type MenE; type: binding
T2 construct: His6 (N); made in house; host or cells: E. coli BL21(DE3) pLysS
T2 sequence (P37353 whole entry): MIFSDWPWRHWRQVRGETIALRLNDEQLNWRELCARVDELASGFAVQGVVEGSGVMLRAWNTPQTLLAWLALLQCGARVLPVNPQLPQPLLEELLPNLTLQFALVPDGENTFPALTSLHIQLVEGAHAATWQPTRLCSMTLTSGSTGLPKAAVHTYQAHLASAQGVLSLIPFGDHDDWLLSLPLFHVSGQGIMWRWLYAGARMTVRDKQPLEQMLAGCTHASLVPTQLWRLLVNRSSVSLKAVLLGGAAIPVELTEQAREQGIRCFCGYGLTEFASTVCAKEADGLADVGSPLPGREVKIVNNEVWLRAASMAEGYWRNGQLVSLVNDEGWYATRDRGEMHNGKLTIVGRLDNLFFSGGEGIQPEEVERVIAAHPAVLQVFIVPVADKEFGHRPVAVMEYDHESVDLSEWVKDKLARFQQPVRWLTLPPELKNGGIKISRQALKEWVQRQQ
Description: as §1
Next. the binding affinity of the 5 with E. coli MenE was deteremined using isothermal titration calorimetry (ITC).

E. coli MenE = target: T3, E. coli MenE (Escherichia coli, UniProt P37353); assay: MenE-MenB coupled enzyme inhibition assay (DHNA-CoA production at 392 nm); type: biochemical; settings: for IC50: ecMenE 50 nM, OSB 60 μM, ATP 240 μM, CoA 240 μM, pH 7.4; for inhibition of MenE (in words): MenE coupled assay
T3 construct: His6 (N); made in house; host or cells: E. coli BL21(DE3) pLysS
T3 sequence (P37353 whole entry): as above
Description: Enzyme inhibition studies were performed in 20 mM NaHPO4 buffer (pH 7.4) containing 150 mM NaCl and 1 mM MgCl2 using a […] coupled assay in which MenE is rate-limiting. […] Reactions were initiated by addition of ecMenE (50 nM), and the production of DHNA-CoA was monitored at 392 nm (ε392=4000 M^−1 cm^−1).
With these linker analogues in hand, their inhibition of E. coli MenE using the previously reported MenE-Meng coupled assay was evaluated (Lu, X. et al. Bioorg. Med. Chem. Lett. 2008, 18, 5963). Consistent with predictions from the docking experiments, all but one of the analogues inhibited MenE, albeit with modest IC50 values compared to OSB-AMS (1) (Table 2).

SMILES | MIC (MRSA (ATCC BAA-1762)) [µg/mL] | Kd (E. coli MenE (K437A)) [nM] | Kd (E. coli MenE(wt); ITC, 22° C, wild-type E. coli MenE) | IC50 (E. coli MenE) [nM] | binding in the ITC assay (in words) (E. coli MenE(wt); E. coli MenE) | inhibition of MenE (in words) (E. coli MenE)
Nc1ncnc2c1ncn2[C@@H]1O[C@H](COS(=O)(=O)NC(=O)CCC(=O)c2ccccc2C(=O)O)[C@@H](O)[C@H]1O [OSB-AMS (1)] | 31.25 (≈ 56.8 µM) | – | – | – | – | –
Nc1ncnc2c1ncn2[C@@H]1O[C@H](COc2cccc(CCC(=O)c3ccccc3C(=O)O)c2)[C@@H](O)[C@H]1O [compound 5] | – | 244 | 244 nM and 249 nM | 8100 ± 900 | – | –
Nc1ncnc2c1ncn2[C@@H]1O[C@H](COc2ccc(CCC(=O)c3ccccc3C(=O)O)cc2)[C@@H](O)[C@H]1O [compound 6, 5′-O-([2-(Carboxyl)phenyl]3-(3-hydroxyphenyl)propannyl)adenosine] | – | – | – | > 200000 | no binding | no inhibition; also recorded: did not inhibit MenE
Nc1ncnc2c1ncn2[C@@H]1O[C@H](COc2cc(CCC(=O)c3ccccc3C(=O)O)cc(C(F)(F)F)c2)[C@@H](O)[C@H]1O [compound 8] | – | – | – | 26500 ± 2300 | – | slightly weaker inhibition
